Experimental data as given in PubChem BioAssay (NCI).
“And” between values parts separate entries of the source, which are not always exact repeats. Identical values can stand only once.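 Step 1: Grow cells in 96-well plates. Step 2: Expose to compound for 48 hours at 5 concentrations. Step 3: Interpolate endpoints linearly; if unreached, use highest concentration. GI50: concentration for 50% inhibition of growth. Definition used: TGI = concentration required for complete inhibition of growth.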

What follows are compounds tested on UACC-257 melanoma (assay: DTP human tumour cell line panel, 48 h).

Structure (SMILES) | GI50 [µM] | TGI [µM]
C=CC(=O)Nc1cccc(Nc2nc(Nc3ccc(OCCOC)cc3)ncc2F)c1 | 6.4 | 22.5
CNC(=O)c1cn(C[C@H](F)CCc2ccc(NC(=O)Cc3cc(OC4CC(F)(F)C4)cc(C)n3)nn2)nn1 | > 100 | > 100
COC(=O)C(Cc1ccccc1)N/C=C\C(=O)c1ccc(Cl)cc1 (configuration not stated) | 26.5 | 67.1
C[C@H]1CCC/C=C/[C@@H]2C[C@H](N)C[C@H]2[C@H](O)/C=C/C(=O)O1 | > 100 | > 100
CC1=C(C)C(=O)O[C@@H]([C@](C)(O)[C@]2(O)CC[C@@]3(O)[C@@H]4C[C@H]5O[C@]56CC=CC(=O)[C@]6(C)[C@H]4CC[C@]23C)C1 | 0.172 | 2.33
CNC(=O)c1ccc(-c2cnc3ncc(Cc4ccc5ncccc5c4)n3n2)cc1F | > 100 | > 100
COc1ccc2c(-c3cc4ccccc4o3)cc(=O)oc2c1 | – | > 100
O=C(Nc1cc(-c2ccccc2)[nH]n1)c1ccc(Cl)cc1 | > 100 | > 100
CCCSc1cc(Cl)nc(N)n1 | > 100 | > 100
CN1CCN(Cc2ccc(NC(=O)c3ccc(C(C)(C)C)c(C#Cc4cnc5cccnn45)c3)cc2C(F)(F)F)CC1 | 1.89 | 3.68
C=CCOc1c(Br)cc(Br)cc1Br | 57.6 | > 100
CC(=O)n1c(-c2ccc(Cl)cc2)nc2c(c1=O)C(c1ccc(Cl)cc1)c1sc3c(Cl)cccc3c1O2 (configuration not stated) | 0.68 | 3.9
COc1cc(/C=C2\CC3C4CC=C5CC(N6CCCC6)CC[C@]5(C)C4CC[C@]3(C)C2OC(C)=O)ccc1OCCN1CCCC1 (some centres not stated) | 1.95 | 3.53
CN(C)CCNC(=O)Nc1c(C#N)[n+]([O-])c2cc(Cl)c(Cl)cc2[n+]1[O-] | 36.5 | > 100
CS(=O)(=O)Nc1ccc(-c2ccc3c(NC(=O)C4CC4)n[nH]c3c2)cc1 | > 25 | > 25
COCC(=O)OC1CCn2c1nc1c2C(=O)C(C)=C(NC(C)=O)C1=O (configuration not stated) | – | 9.08
COc1ccc(C2C(C#N)=C(N)OC3=C2CCCc2ccc(F)cc23)cc1OC (configuration not stated) | 29.6 | > 67.8
COc1ccc2c(c1)C=CC(C#N)N2C(=O)c1ccccc1 (configuration not stated) | 45.2 | > 100

The compounds below were run on HOP-62 NSCLC (assay: DTP human tumour cell line panel, 48 h).

Structure (SMILES) | GI50 [µM] | TGI [µM]
C=CC(=O)Nc1cccc(Nc2nc(Nc3ccc(OCCOC)cc3)ncc2F)c1 | 2.42 | 20.7
CNC(=O)c1cn(C[C@H](F)CCc2ccc(NC(=O)Cc3cc(OC4CC(F)(F)C4)cc(C)n3)nn2)nn1 | > 100 | > 100
COC(=O)C(Cc1ccccc1)N/C=C\C(=O)c1ccc(Cl)cc1 (configuration not stated) | 25.1 | 67.6
C[C@H]1CCC/C=C/[C@@H]2C[C@H](N)C[C@H]2[C@H](O)/C=C/C(=O)O1 | > 100 | > 100
CC1=C(C)C(=O)O[C@@H]([C@](C)(O)[C@]2(O)CC[C@@]3(O)[C@@H]4C[C@H]5O[C@]56CC=CC(=O)[C@]6(C)[C@H]4CC[C@]23C)C1 | 0.292 | 3.39
CNC(=O)c1ccc(-c2cnc3ncc(Cc4ccc5ncccc5c4)n3n2)cc1F | 94.3 | > 100
COc1ccc2c(-c3cc4ccccc4o3)cc(=O)oc2c1 | – | 46.7
O=C(Nc1cc(-c2ccccc2)[nH]n1)c1ccc(Cl)cc1 | 20.7 | > 100
CCCSc1cc(Cl)nc(N)n1 | > 100 | > 100
CN1CCN(Cc2ccc(NC(=O)c3ccc(C(C)(C)C)c(C#Cc4cnc5cccnn45)c3)cc2C(F)(F)F)CC1 | 1.76 | 3.35
C=CCOc1c(Br)cc(Br)cc1Br | 23.5 | > 100
CC(=O)n1c(-c2ccc(Cl)cc2)nc2c(c1=O)C(c1ccc(Cl)cc1)c1sc3c(Cl)cccc3c1O2 (configuration not stated) | 0.374 | 1.76
COc1cc(/C=C2\CC3C4CC=C5CC(N6CCCC6)CC[C@]5(C)C4CC[C@]3(C)C2OC(C)=O)ccc1OCCN1CCCC1 (some centres not stated) | 19.7 | 34.6
CN(C)CCNC(=O)Nc1c(C#N)[n+]([O-])c2cc(Cl)c(Cl)cc2[n+]1[O-] | 34.2 | > 100
CS(=O)(=O)Nc1ccc(-c2ccc3c(NC(=O)C4CC4)n[nH]c3c2)cc1 | > 25 | > 25
COCC(=O)OC1CCn2c1nc1c2C(=O)C(C)=C(NC(C)=O)C1=O (configuration not stated) | – | 41.1
COc1ccc(C2C(C#N)=C(N)OC3=C2CCCc2ccc(F)cc23)cc1OC (configuration not stated) | 21.5 | 42.3
COc1ccc2c(c1)C=CC(C#N)N2C(=O)c1ccccc1 (configuration not stated) | < 0.01 | > 100

Each compound was assayed on SR leukemia (assay: DTP human tumour cell line panel, 48 h).

Structure (SMILES) | GI50 [µM] | TGI
C=CC(=O)Nc1cccc(Nc2nc(Nc3ccc(OCCOC)cc3)ncc2F)c1 | 3.41 | > 100 µM
CNC(=O)c1cn(C[C@H](F)CCc2ccc(NC(=O)Cc3cc(OC4CC(F)(F)C4)cc(C)n3)nn2)nn1 | > 81.8 | > 100 µM
COC(=O)C(Cc1ccccc1)N/C=C\C(=O)c1ccc(Cl)cc1 (configuration not stated) | 48.1 | > 100 µM
C[C@H]1CCC/C=C/[C@@H]2C[C@H](N)C[C@H]2[C@H](O)/C=C/C(=O)O1 | 74 | > 100 µM
CC1=C(C)C(=O)O[C@@H]([C@](C)(O)[C@]2(O)CC[C@@]3(O)[C@@H]4C[C@H]5O[C@]56CC=CC(=O)[C@]6(C)[C@H]4CC[C@]23C)C1 | 0.0552 | > 100 µM
CNC(=O)c1ccc(-c2cnc3ncc(Cc4ccc5ncccc5c4)n3n2)cc1F | > 100 | > 100 µM
COc1ccc2c(-c3cc4ccccc4o3)cc(=O)oc2c1 | – | > 100 µM
O=C(Nc1cc(-c2ccccc2)[nH]n1)c1ccc(Cl)cc1 | 5.65 | > 100 µM
CCCSc1cc(Cl)nc(N)n1 | > 100 | > 100 µM
CN1CCN(Cc2ccc(NC(=O)c3ccc(C(C)(C)C)c(C#Cc4cnc5cccnn45)c3)cc2C(F)(F)F)CC1 | 0.199 | 0.512 µM
C=CCOc1c(Br)cc(Br)cc1Br | 4.84 | > 100 µM
CC(=O)n1c(-c2ccc(Cl)cc2)nc2c(c1=O)C(c1ccc(Cl)cc1)c1sc3c(Cl)cccc3c1O2 (configuration not stated) | 0.436 | 3.95 µM
COc1cc(/C=C2\CC3C4CC=C5CC(N6CCCC6)CC[C@]5(C)C4CC[C@]3(C)C2OC(C)=O)ccc1OCCN1CCCC1 (some centres not stated) | 1.83 | 4.01 µM
CN(C)CCNC(=O)Nc1c(C#N)[n+]([O-])c2cc(Cl)c(Cl)cc2[n+]1[O-] | 13.4 | > 100 µM
CS(=O)(=O)Nc1ccc(-c2ccc3c(NC(=O)C4CC4)n[nH]c3c2)cc1 | > 21.2 | > 25 µM
COCC(=O)OC1CCn2c1nc1c2C(=O)C(C)=C(NC(C)=O)C1=O (configuration not stated) | 2.52 | 5.17 µM and 12.5 µM
COc1ccc(C2C(C#N)=C(N)OC3=C2CCCc2ccc(F)cc23)cc1OC (configuration not stated) | > 100 | > 100 µM
COc1ccc2c(c1)C=CC(C#N)N2C(=O)c1ccccc1 (configuration not stated) | < 0.01 | > 100 µM

The compounds below were run on NCI-H23 lung (assay: DTP human tumour cell line panel, 48 h).

Structure (SMILES) | GI50 [µM] | TGI [µM]
C=CC(=O)Nc1cccc(Nc2nc(Nc3ccc(OCCOC)cc3)ncc2F)c1 | 5.67 | 29.1
CNC(=O)c1cn(C[C@H](F)CCc2ccc(NC(=O)Cc3cc(OC4CC(F)(F)C4)cc(C)n3)nn2)nn1 | > 100 | > 100
COC(=O)C(Cc1ccccc1)N/C=C\C(=O)c1ccc(Cl)cc1 (configuration not stated) | 18.3 | 45.7
C[C@H]1CCC/C=C/[C@@H]2C[C@H](N)C[C@H]2[C@H](O)/C=C/C(=O)O1 | > 100 | > 100
CC1=C(C)C(=O)O[C@@H]([C@](C)(O)[C@]2(O)CC[C@@]3(O)[C@@H]4C[C@H]5O[C@]56CC=CC(=O)[C@]6(C)[C@H]4CC[C@]23C)C1 | 0.254 | 2.93
CNC(=O)c1ccc(-c2cnc3ncc(Cc4ccc5ncccc5c4)n3n2)cc1F | > 100 | > 100
COc1ccc2c(-c3cc4ccccc4o3)cc(=O)oc2c1 | – | > 100
O=C(Nc1cc(-c2ccccc2)[nH]n1)c1ccc(Cl)cc1 | > 100 | > 100
CCCSc1cc(Cl)nc(N)n1 | > 100 | > 100
CN1CCN(Cc2ccc(NC(=O)c3ccc(C(C)(C)C)c(C#Cc4cnc5cccnn45)c3)cc2C(F)(F)F)CC1 | 1.85 | 3.89
C=CCOc1c(Br)cc(Br)cc1Br | 10.1 | > 100
CC(=O)n1c(-c2ccc(Cl)cc2)nc2c(c1=O)C(c1ccc(Cl)cc1)c1sc3c(Cl)cccc3c1O2 (configuration not stated) | 0.513 | 2.32
COc1cc(/C=C2\CC3C4CC=C5CC(N6CCCC6)CC[C@]5(C)C4CC[C@]3(C)C2OC(C)=O)ccc1OCCN1CCCC1 (some centres not stated) | 14.2 | 27.6
CN(C)CCNC(=O)Nc1c(C#N)[n+]([O-])c2cc(Cl)c(Cl)cc2[n+]1[O-] | 27 | > 100
CS(=O)(=O)Nc1ccc(-c2ccc3c(NC(=O)C4CC4)n[nH]c3c2)cc1 | > 25 | > 25
COCC(=O)OC1CCn2c1nc1c2C(=O)C(C)=C(NC(C)=O)C1=O (configuration not stated) | 3.23 | 22.5
COc1ccc(C2C(C#N)=C(N)OC3=C2CCCc2ccc(F)cc23)cc1OC (configuration not stated) | 22.8 | > 65.9
COc1ccc2c(c1)C=CC(C#N)N2C(=O)c1ccccc1 (configuration not stated) | < 0.01 | > 100

Each compound was assayed on UO-31 renal (assay: DTP human tumour cell line panel, 48 h).

Structure (SMILES) | GI50 [µM] | TGI [µM]
C=CC(=O)Nc1cccc(Nc2nc(Nc3ccc(OCCOC)cc3)ncc2F)c1 | 0.549 | 5.06
CNC(=O)c1cn(C[C@H](F)CCc2ccc(NC(=O)Cc3cc(OC4CC(F)(F)C4)cc(C)n3)nn2)nn1 | > 100 | > 100
COC(=O)C(Cc1ccccc1)N/C=C\C(=O)c1ccc(Cl)cc1 (configuration not stated) | 38.4 | > 100
C[C@H]1CCC/C=C/[C@@H]2C[C@H](N)C[C@H]2[C@H](O)/C=C/C(=O)O1 | > 100 | > 100
CC1=C(C)C(=O)O[C@@H]([C@](C)(O)[C@]2(O)CC[C@@]3(O)[C@@H]4C[C@H]5O[C@]56CC=CC(=O)[C@]6(C)[C@H]4CC[C@]23C)C1 | 0.0957 | 1.46
CNC(=O)c1ccc(-c2cnc3ncc(Cc4ccc5ncccc5c4)n3n2)cc1F | > 100 | > 100
COc1ccc2c(-c3cc4ccccc4o3)cc(=O)oc2c1 | – | 65.6
O=C(Nc1cc(-c2ccccc2)[nH]n1)c1ccc(Cl)cc1 | 7.32 | > 100
CCCSc1cc(Cl)nc(N)n1 | 71.5 | > 100
CN1CCN(Cc2ccc(NC(=O)c3ccc(C(C)(C)C)c(C#Cc4cnc5cccnn45)c3)cc2C(F)(F)F)CC1 | 1.93 | 3.9
C=CCOc1c(Br)cc(Br)cc1Br | 2.82 | 57.8
CC(=O)n1c(-c2ccc(Cl)cc2)nc2c(c1=O)C(c1ccc(Cl)cc1)c1sc3c(Cl)cccc3c1O2 (configuration not stated) | 0.551 | 2.2
COc1cc(/C=C2\CC3C4CC=C5CC(N6CCCC6)CC[C@]5(C)C4CC[C@]3(C)C2OC(C)=O)ccc1OCCN1CCCC1 (some centres not stated) | 1.86 | 3.35
CN(C)CCNC(=O)Nc1c(C#N)[n+]([O-])c2cc(Cl)c(Cl)cc2[n+]1[O-] | 45 | > 100
CS(=O)(=O)Nc1ccc(-c2ccc3c(NC(=O)C4CC4)n[nH]c3c2)cc1 | > 25 | > 25
COCC(=O)OC1CCn2c1nc1c2C(=O)C(C)=C(NC(C)=O)C1=O (configuration not stated) | – | 26.2
COc1ccc(C2C(C#N)=C(N)OC3=C2CCCc2ccc(F)cc23)cc1OC (configuration not stated) | 16.5 | 31.8
COc1ccc2c(c1)C=CC(C#N)N2C(=O)c1ccccc1 (configuration not stated) | < 0.01 | > 100
